From patent US20170152269A1, “FUSED BICYCLIC COMPOUNDS AND THEIR USE AS CDK INHIBITORS” (priority 2016, published 2017)
Counter-ions that a name gives are not always drawn.

How the values were obtained:
[1] = molecular target: T1, CDK4 (Homo sapiens, UniProt P11802); assay: Lance TR-FRET kinase assay, CDK4; type: biochemical; settings: ATP 100 μM, 60 min, read-out: CDK 4 inhibitory activity (IC50)
T1 construct: purchased ThermoFisher (Waltham, Mass.)
Procedure: (§1) Inhibitory activity of compounds against CDK1/2/4/5/6/7 was assessed using Lance TR-FRET assay kits from Perkin Elmer Life Sciences (Waltham, Mass.). CDK1/2/4/5/6/7 enzymes were purchased from ThermoFisher (Waltham, Mass.). […] Final concentrations of substrates and DMSO were 100 nM and 0.5%, respectively. Concentrations of ATP and different CDK enzymes were adjusted accordingly to achieve optimal enzymatic activities. Final CDK concentrations were 100, 500, 600, 100, 50, and 200 ng/well and ATP concentrations were 30, 50, 100, 20, 100, and 50 μM for CDK1/2/4/5/6/7, respectively. Assay plates were covered to protect from light and spun for 1 min at 700 RPM. Reactions were allowed to perform for 60 minutes in dark with gentle shaking at room temperature after which 5 μL of 40 mM EDTA in detection buffer was added to stop reactions followed 5 μL of the Eu labeled antibodies giving final concentrations of 2 nM to detect the phosphorylation of the peptide substrates. […] The percent of inhibition was calculated from the means of data points using the formula: 100−(Signalcompound−NoSignalbackground)*100/(Signalvehicle−NoSignalbackground). The IC50s were determined with GraphPad Prism by the non-linear sigmoidal curve fitting of data from 10 doses.

[2] = molecular target: T2, CDK6 (Homo sapiens, UniProt Q00534); assay: Lance TR-FRET kinase assay, CDK6; type: biochemical
T2 construct: purchased ThermoFisher (Waltham, Mass.)
T2 sequence (Q00534 whole entry): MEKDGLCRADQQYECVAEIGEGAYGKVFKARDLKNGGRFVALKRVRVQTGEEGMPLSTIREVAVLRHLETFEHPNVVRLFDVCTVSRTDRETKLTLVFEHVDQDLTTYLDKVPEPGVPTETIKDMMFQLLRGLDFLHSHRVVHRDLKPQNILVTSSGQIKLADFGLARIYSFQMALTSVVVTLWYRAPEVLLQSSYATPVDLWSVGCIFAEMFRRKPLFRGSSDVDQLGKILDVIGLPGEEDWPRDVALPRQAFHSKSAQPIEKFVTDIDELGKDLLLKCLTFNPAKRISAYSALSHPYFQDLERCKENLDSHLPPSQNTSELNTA
T2 sequence (P24385 whole entry partner): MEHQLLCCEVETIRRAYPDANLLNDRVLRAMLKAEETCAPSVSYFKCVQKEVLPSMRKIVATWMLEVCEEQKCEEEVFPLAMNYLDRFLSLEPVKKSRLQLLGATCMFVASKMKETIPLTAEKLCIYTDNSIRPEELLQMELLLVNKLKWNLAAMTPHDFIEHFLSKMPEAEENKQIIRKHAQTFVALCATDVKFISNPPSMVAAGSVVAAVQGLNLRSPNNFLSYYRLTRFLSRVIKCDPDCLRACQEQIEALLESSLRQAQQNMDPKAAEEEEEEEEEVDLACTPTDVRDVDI
Procedure: (§2) Time Resolved-Fluorescent Resonance Energy Transfer (TR-FRET) was used to determine inhibitory ability of compounds A1˜A19, B1s and B1˜B12 against the enzymatic activity of CDK1, CDK2, CDK4, CDK5, CDK6, CDK7, and CDK9.
(§3) Inhibitory activity of compounds against CDK1/2/4/5/6/7 was assessed using Lance TR-FRET assay kits from Perkin Elmer Life Sciences (Waltham, Mass.). CDK1/2/4/5/6/7 enzymes were purchased from ThermoFisher (Waltham, Mass.). 2.5 μL of compound solutions and 2.5 μL of enzyme solutions in kinase assay buffer, which was 50 mM HEPES (pH 7.5) with 1 mM EGTA, 1 mM MgCl2, 2 mM DTT, and 0.01% Tween-20, were added into a white OptiPlate-384 plate followed by adding 5 μL of fluorescently labeled peptide substrates (Ulight-4E-BP1 for CDK4/6 and Ulight-MBP for […]) and ATP mixture solutions. Final concentrations of substrates and DMSO were 100 nM and 0.5%, respectively. Concentrations of ATP and different CDK enzymes were adjusted accordingly to achieve optimal enzymatic activities. Final CDK concentrations were 100, 500, 600, 100, 50, and 200 ng/well and ATP concentrations were 30, 50, 100, 20, 100, and 50 μM for CDK1/2/4/5/6/7, respectively. Assay plates were covered to protect from light and spun for 1 min at 700 RPM. Reactions were allowed to perform for 60 minutes in dark with gentle shaking at room temperature after which 5 μL of 40 mM EDTA in detection buffer was added to stop reactions followed 5 μL of the Eu labeled antibodies giving final concentrations of 2 nM to detect the phosphorylation of the peptide substrates. Assay plates were read with the EnVision™ Multilabel Reader in TR-FRET mode (excitation at 320 nm and emission at 665 nm). The percent of inhibition was calculated from the means of data points using the formula: 100−(Signalcompound−NoSignalbackground)*100/(Signalvehicle−NoSignalbackground). The IC50s were determined with GraphPad Prism by the non-linear sigmoidal curve fitting of data from 10 doses.

[3] = molecular target: T3, CDK9/cyclin T1 (Homo sapiens, UniProt P50750); assay: LanthaScreen Eu kinase binding assay, CDK9; settings: tracer 236 displacement, CDK9/cyclin T1 5 nM, 1 hour; read-out: CDK 9 inhibitory activity (IC50)
T3 construct: purchased ThermoFisher (Waltham, Mass.)
T3 sequence (P50750 whole entry): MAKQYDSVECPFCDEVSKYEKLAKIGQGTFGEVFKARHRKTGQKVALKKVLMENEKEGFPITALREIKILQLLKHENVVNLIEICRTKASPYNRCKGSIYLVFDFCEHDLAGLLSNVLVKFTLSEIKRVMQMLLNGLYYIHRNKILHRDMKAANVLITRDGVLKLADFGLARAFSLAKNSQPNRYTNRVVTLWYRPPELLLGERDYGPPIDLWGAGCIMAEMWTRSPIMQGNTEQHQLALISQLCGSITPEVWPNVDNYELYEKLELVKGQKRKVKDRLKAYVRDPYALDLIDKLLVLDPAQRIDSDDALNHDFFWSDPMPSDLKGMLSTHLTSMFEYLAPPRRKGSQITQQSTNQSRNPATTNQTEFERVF
T3 sequence (O60563 whole entry partner): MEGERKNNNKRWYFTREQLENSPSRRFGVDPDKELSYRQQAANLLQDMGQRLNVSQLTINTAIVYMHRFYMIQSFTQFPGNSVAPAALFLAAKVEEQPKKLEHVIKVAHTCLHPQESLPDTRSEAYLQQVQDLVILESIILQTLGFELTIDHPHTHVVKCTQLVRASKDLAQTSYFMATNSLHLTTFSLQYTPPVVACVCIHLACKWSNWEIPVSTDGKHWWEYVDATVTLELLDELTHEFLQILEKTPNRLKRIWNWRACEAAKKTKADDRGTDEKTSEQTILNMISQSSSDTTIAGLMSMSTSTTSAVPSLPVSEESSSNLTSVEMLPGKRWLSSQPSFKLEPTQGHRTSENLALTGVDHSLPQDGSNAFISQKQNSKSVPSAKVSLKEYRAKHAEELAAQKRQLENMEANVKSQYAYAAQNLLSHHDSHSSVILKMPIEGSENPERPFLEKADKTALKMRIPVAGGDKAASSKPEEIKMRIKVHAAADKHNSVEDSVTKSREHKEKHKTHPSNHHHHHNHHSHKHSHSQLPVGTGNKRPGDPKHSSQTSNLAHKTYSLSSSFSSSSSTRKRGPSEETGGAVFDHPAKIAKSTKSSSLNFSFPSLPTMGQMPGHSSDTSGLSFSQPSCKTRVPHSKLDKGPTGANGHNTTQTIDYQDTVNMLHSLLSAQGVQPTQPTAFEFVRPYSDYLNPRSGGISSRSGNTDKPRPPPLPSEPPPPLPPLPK
Procedure: as §2
The CDK9 kinase inhibitory activity of compounds was tested in the LanthaScreen Eu kinase binding assay from ThermoFisher. LanthaScreen® Eu Kinase binding assays are based on the binding and displacement of a proprietary, Alexa Fluor® 647-labeled, ATP-competitive kinase inhibitor scaffold (kinase tracer) to CDK9. CDK9/cyclin T1, Kinase tracer 236 and LanthaScreen® Eu-anti-His Antibody were purchased form ThermoFisher (Waltham, Mass.). 5 μL of CDK9/cyclin T1 (final 5 nM)/antibody (final 2 nM) mixture, 5 μL of compound in kinase buffer, and 5 μL of tracer (final 30 nM) were added to wells of a white OptiPlate-384 plate in this specific order. Assay plates were covered to protect from light, spun for 1 min at 700 RPM and incubated at room temperature for 1 hour. Assay plates were read with the EnVision™ Multilabel Reader in TR-FRET mode (excitation at 320 nm and emission at 665 nm). The percent of inhibition was calculated from the means of data points using the formula: 100−(Signalcompound−NoSignalbackgound)*100/(Signalvehicle−NoSignalbackground). The IC50s were determined with GraphPad Prism by the non-linear sigmoidal curve fitting of data from 10 doses.

[4] = molecular target: T4, CDK2 (Homo sapiens, UniProt P24941); assay: Lance TR-FRET kinase assay, CDK2; type: biochemical; settings: ATP 50 μM, 60 min, read-out: CDK 2 inhibitory activity (IC50)
T4 construct: purchased ThermoFisher (Waltham, Mass.)
Procedure: as §2, §3

[5] = molecular target: T5, CDK1 (Homo sapiens, UniProt P06493); assay: Lance TR-FRET kinase assay, CDK1; type: biochemical; settings: ATP 30 μM, 60 min, read-out: CDK 1 inhibitory activity (IC50)
T5 construct: purchased ThermoFisher (Waltham, Mass.)
T5 sequence (P06493 whole entry): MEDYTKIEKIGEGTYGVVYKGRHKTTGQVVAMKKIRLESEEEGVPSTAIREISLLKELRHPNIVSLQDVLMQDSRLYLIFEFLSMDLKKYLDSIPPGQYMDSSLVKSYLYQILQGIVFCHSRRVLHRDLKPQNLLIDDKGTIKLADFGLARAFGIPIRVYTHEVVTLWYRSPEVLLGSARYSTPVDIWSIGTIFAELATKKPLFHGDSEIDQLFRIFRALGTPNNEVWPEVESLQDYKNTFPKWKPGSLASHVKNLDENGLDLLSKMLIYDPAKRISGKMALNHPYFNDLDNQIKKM
T5 sequence (P14635 whole entry partner): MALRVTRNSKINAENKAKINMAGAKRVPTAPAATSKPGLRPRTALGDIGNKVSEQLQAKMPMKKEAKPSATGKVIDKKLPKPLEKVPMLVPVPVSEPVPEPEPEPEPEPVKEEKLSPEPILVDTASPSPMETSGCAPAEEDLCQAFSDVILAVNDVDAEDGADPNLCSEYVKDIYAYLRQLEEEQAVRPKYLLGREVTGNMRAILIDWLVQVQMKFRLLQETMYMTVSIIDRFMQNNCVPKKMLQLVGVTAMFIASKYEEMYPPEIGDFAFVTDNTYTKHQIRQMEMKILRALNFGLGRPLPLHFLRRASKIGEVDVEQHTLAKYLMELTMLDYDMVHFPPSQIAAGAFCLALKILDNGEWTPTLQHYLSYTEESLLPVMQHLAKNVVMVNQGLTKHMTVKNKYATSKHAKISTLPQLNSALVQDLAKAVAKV
Procedure: as §2, §3

[6] = molecular target: T6, CDK7 (Homo sapiens, UniProt P50613); assay: Lance TR-FRET kinase assay, CDK7; type: biochemical; settings: ATP 50 μM, 60 min, read-out: CDK 7 inhibitory activity (IC50)
T6 construct: purchased ThermoFisher (Waltham, Mass.)
T6 sequence (P50613 whole entry): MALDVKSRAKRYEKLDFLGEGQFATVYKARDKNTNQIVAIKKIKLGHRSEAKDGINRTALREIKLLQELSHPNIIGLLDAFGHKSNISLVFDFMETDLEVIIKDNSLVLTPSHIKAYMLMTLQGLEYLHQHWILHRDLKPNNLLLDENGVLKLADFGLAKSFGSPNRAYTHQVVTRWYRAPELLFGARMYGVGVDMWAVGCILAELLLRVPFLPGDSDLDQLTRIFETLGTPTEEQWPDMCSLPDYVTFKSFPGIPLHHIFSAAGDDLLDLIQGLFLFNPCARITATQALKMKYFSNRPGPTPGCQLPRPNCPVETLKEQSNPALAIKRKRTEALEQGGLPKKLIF
T6 sequence (P51946 whole entry partner): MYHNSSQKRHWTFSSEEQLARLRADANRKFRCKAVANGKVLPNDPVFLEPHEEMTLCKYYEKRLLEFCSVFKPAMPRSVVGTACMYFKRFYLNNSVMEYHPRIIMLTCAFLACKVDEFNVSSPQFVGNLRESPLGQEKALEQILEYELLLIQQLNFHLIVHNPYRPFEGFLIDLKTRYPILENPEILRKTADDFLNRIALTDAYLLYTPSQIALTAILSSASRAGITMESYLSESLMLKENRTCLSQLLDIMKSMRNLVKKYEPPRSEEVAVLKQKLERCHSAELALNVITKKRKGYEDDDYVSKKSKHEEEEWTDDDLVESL
T6 sequence (P51948 whole entry partner): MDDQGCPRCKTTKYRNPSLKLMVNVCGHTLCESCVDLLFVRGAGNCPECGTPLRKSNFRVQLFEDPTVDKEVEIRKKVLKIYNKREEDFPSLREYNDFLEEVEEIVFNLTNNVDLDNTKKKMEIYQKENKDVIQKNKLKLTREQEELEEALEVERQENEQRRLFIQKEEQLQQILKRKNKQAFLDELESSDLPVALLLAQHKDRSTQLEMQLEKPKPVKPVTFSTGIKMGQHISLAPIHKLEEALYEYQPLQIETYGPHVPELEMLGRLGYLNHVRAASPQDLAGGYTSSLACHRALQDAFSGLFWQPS
Procedure: as §1

T1 sequence (P11802 whole entry): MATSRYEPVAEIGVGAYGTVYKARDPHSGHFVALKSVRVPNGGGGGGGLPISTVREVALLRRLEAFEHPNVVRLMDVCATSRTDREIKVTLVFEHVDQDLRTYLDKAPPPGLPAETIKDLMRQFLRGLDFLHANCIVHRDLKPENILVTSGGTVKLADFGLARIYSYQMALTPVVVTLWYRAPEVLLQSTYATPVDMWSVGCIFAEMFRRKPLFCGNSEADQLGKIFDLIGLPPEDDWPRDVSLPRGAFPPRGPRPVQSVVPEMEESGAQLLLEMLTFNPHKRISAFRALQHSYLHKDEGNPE
T1 sequence (P24385 whole entry partner): as the sequence (P24385 whole entry partner) above

Row | Structure (SMILES) | IC50 [1] | IC50 [2] | IC50 [3] | IC50 [4] | IC50 [5] | IC50 [6]
1 | CN(C)C(=O)c1sc2cnc(Nc3ccc(N4CCNCC4)cn3)cc2c1C1=CCCC1 [Compound A2, 3-(cyclopent-1-en-1-yl)-N,N-dimethyl-5-((5-(piperazin-1-yl)pyridin-2-yl)amino)thieno[2,3-c]pyridine-2-carboxamide] | 5 nM | 2.3 nM |  |  |  | 
2 | Cc1c(C(=O)N(C)C)sc2cnc(Nc3ccc(N4CCNCC4)cn3)cc12 [Compound A3, N,N,3-trimethyl-5-((5-(piperazin-1-yl)pyridin-2-yl)amino)thieno[2,3-c]pyridine-2-carboxamide] | 413 nM | 174 nM | 420 nM |  |  | 
3 | COC1(c2c(C(=O)N(C)C)sc3cnc(Nc4ccc(N5CCNCC5)cn4)cc23)CCCC1 [Compound A6, 3-(1-methoxycyclopentyl)-N,N-dimethyl-5-((5-(piperazin-1-yl)pyridin-2-yl)amino)thieno[2,3-c]pyridine-2-carboxamide] | 3.7 nM | 2.1 nM | 5.2 nM | 124 nM | 501 nM | 
4 | CN(C)C(=O)c1sc2cnc(Nc3ccc(N4CCNCC4)cn3)cc2c1C1CC2CC2C1 (stereo not shown) [Compound A7, 3-(bicyclo[3.1.0]hexan-3-yl)-N,N-dimethyl-5-((5-(piperazin-1-yl)pyridin-2-yl)amino)thieno[2,3-c]pyridine-2-carboxamide] | 4.7 nM | 6.4 nM |  |  |  | 
5 | CN(C)C(=O)c1sc2cnc(Nc3cccc(N4CCOCC4)c3)cc2c1C1CCCC1 [Compound A10, 3-cyclopentyl-N,N-dimethyl-5-((3-morpholinophenyl)amino)thieno[2,3-c]pyridine-2-carboxamide] | 262 nM | 168 nM | 106 nM |  |  | 
6 | CN(C)C(=O)c1sc2cnc(Nc3ccc(N4CCN(C(=O)C(O)CO)CC4)cn3)cc2c1C1CCCC1 (stereo not shown) [Compound A14, 3-cyclopentyl-5-((5-(4-(2,3-dihydroxypropanoyl)piperazin-1-yl)pyridin-2-yl)amino)-N,N-dimethylthieno[2,3-c]pyridine-2-carboxamide] | 2.9 nM | 2.1 nM | 4.2 nM | 67.7 nM | 273 nM | 
7 | CC(C)c1c(C(=O)N(C)C)sc2cnc(Nc3ccc(N4CCNCC4)cn3)cc12 [Compound A15, 3-isopropyl-N,N-dimethyl-5-((5-(piperazin-1-yl)pyridin-2-yl)amino)thieno[2,3-c]pyridine-2-carboxamide] | 20.5 nM | 10.7 nM |  |  |  | 

Results, then the compound that gave them:

Row | IC50 [1] | IC50 [2] | IC50 [3] | IC50 [4] | IC50 [5] | IC50 [6] | Structure (SMILES)
8 | 4.6 nM | 2.1 nM |  |  |  |  | CN(C)C(=O)c1sc2cnc(Nc3ccc(N4CCNCC4)cn3)cc2c1C1CCC1 [Compound A4, 3-cyclobutyl-N,N-dimethyl-5-((5-(piperazin-1-yl)pyridin-2-yl)amino)thieno[2,3-c]pyridine-2-carboxamide]
9 | 31 nM | 84 nM | 552 nM |  |  |  | O=C(c1sc2cnc(Nc3ccc(N4CCNCC4)cn3)cc2c1C1CCCC1)N1CCC1 [Compound A8, azetidin-1-yl(3-cyclopentyl-5-((5-(piperazin-1-yl)pyridin-2-yl)amino)thieno[2,3-c]pyridin-2-yl)methanone]
10 | 5.3 nM | 3.3 nM |  |  |  |  | N#CC1CN(C(=O)c2sc3cnc(Nc4ccc(N5CCNCC5)cn4)cc3c2C2CCCC2)C1 [Compound A9, 1-(3-cyclopentyl-5-((5-(piperazin-1-yl)pyridin-2-yl)amino)thieno[2,3-c]pyridine-2-carbonyl) azetidine-3-carbonitrile]
11 | 160 nM | 50 nM | 58 nM |  |  |  | CN(C)C(=O)c1sc2cnc(Nc3cccc(N4CCNCC4)c3)cc2c1C1CCCC1 [Compound A11, 3-cyclopentyl-N,N-dimethyl-5-((3-(piperazin-1-yl)phenyl)amino)thieno[2,3-c]pyridine-2-carboxamide]
12 | 29 nM | 20 nM |  | 1110 nM | 3680 nM |  | CN(C)C(=O)c1sc2cnc(Nc3ccc(N4CCNCC4)cn3)cc2c1C1CCC(F)(F)C1 (stereo not shown) [Compound A12, 3-(3,3-difluorocyclopentyl)-N,N-dimethyl-5-((5-(piperazin-1-yl)pyridin-2-yl)amino)thieno[2,3-c]pyridine-2-carboxamide]
13 | 34 nM | 25 nM |  |  |  |  | CN(C)C(=O)c1sc2cnc(Nc3ccc(N4CCNCC4)cn3)cc2c1C1CCOC1 (stereo not shown) [Compound A13, N,N-dimethyl-5-((5-(piperazin-1-yl)pyridin-2-yl)amino)-3-(tetrahydrofuran-3-yl)thieno[2,3-c]pyridine-2-carboxamide]
14 | 32.1 nM | 21 nM | 24 nM |  |  |  | CN(C)C(=O)c1sc2cnc(Nc3ccc(N4CCNCC4)cn3)cc2c1C1CC1 [Compound A16, 3-cyclopropyl-N,N-dimethyl-5-((5-(piperazin-1-yl)pyridin-2-yl)amino)thieno[2,3-c]pyridine-2-carboxamide]
15 | 12 nM | 20 nM |  |  |  |  | O=C(c1sc2cnc(Nc3ccc(N4CCNCC4)cn3)cc2c1C1CCCC1)N1CCCC1 [Compound A17, (3-cyclopentyl-5-((5-(piperazin-1-yl)pyridin-2-yl)amino)thieno[2,3-c]pyridin-2-yl)(pyrrolidin-1-yl)methanone]
16 | 60 nM | 262 nM |  |  |  |  | CC1(C)CN(C(=O)c2sc3cnc(Nc4ccc(N5CCNCC5)cn4)cc3c2C2CCCC2)C1 [Compound A18, (3-cyclopentyl-5-((5-(piperazin-1-yl)pyridin-2-yl)amino)thieno[2,3-c]pyridin-2-yl)(3,3-dimethylazetidin-1-yl)methanone]
17 | 22 nM | 18 nM |  |  |  |  | O=C(c1sc2cnc(Nc3ccc(N4CCNCC4)cn3)cc2c1C1CCCC1)N1CC(O)C1 [Compound A19, (3-cyclopentyl-5-((5-(piperazin-1-yl)pyridin-2-yl)amino)thieno[2,3-c]pyridin-2-yl)(3-hydroxyazetidin-1-yl)methanone]
18 | 0.9 nM |  | 0.6 nM | 9.2 nM | 8.7 nM | 7.2 nM | N#Cc1sc2cnc(Nc3ccc(N4CCNCC4)cn3)cc2c1C1CCCC1 [Compound B1s, 3-cyclopentyl-5-((5-(piperazin-1-yl)pyridin-2-yl)amino)thieno[2,3-c]pyridine-2-carbonitrile hydrochloride]
